{"source": "paper PMC10762068", "about": "“Selective blockade of Cav1.2 (α1C) versus Cav1.3 (α1D) L-type calcium channels by the black mamba toxin calciseptine” (Nature Communications, 2024)", "key": {"[1]": {"test_system": "isolated perfused hearts from mice", "assay": "Whole heart contractility and heart rate, Langendorff perfused mouse heart", "conditions": "native Cas 100 nM, n=5", "experimental": "Hearts were isolated from adult male mice anaesthetized with a first intraperitoneal injection of a mixture comprising ketamine (100 mg/kg) and xylazine (10 mg/kg), and a second one of sodium pentobarbital (45 mg/kg; Ceva Santé Animale, France). An intraperitoneal injection of heparin (7500IU/kg; Sanofi Aventis, France) was administered in order to avoid thrombus formation. A thoracotomy was performed and beating hearts were quickly removed and excised into ice-cold modified Krebs-Henseleit buffer containing (mM): NaCl 116; KCl 5; MgSO4 1.1; NaH2P0_4 0.35; NaHCO3 27; CaC1_2 1.8 and glucose 10. Buffer was gassed with 95% O2 and 5% CO2, giving a pH of 7.4 at 37 °C. Before use, the buffer was initially passed through a 0.2 µm filter (Sarstedt, USA). The aorta was cannulated under magnification and hearts were quickly mounted and perfused on the Langendorff perfusion system (Isolated heart system, EMKA Technologies, France). The coronary circulation was perfused at a constant pressure (70 mmHg) over a 1 to 4 ml/min flow range with modified Krebs-Henseleit buffer. During the stabilization phase, the heart was continuously perfused with modified Krebs-Henseleit and the electrocardiogram (ECG) was recorded through Ag/AgCl electrodes positioned on the right atrium and near the apex. Heart temperature was of 37 °C as continuously assessed by a probe positioned on the base of the heart and recorded by using a TH-5 monitoring thermometer (Phymep, USA). LV pressure was continuously measured by a home-made balloon inserted into the LV cavity by the left atrium and connected to the EMKA amplifier. After 20 min of stabilization (baseline), 100 nM Cas was perfused into the heart for 7 min. Then, the modified Krebs-Henseleit buffer was perfused for 1 h allowing to wash the effects of the Cas toxin. During the whole ex vivo protocol, the left ventricular pressure signals were continuously digitized at […] and recorded using an IOX data acquisition system (EMKA Technologies, France). Data were analyzed using ecgAUTOv3.3.3.12 (EMKA technologies) and MATLAB-R2021b (The MathWorks) custom-made script\n(§1) In all experiments of cellular electrophysiology, we employed synthetized analog of Cas, commercially available at Latoxan (ID: L8109). The native peptide was purified from the venom of Dendroaspis polylepis purchased from Latoxan, as previoulsly described. The pure peptide was obtained after gel filtration, cation exchange and C18 reversed phase chromatography. Its measured molecular mass (7036.26 Da average) was in accordance with the mass calculated from sequence data (7036.22 Da)."}, "[2]": {"test_system": "human ether-a-go-go-related gene (hERG)", "assay": "hERG current in Xenopus oocytes", "assay_type": "cell-based", "conditions": "Cas 1 µM, n=5, Xenopus oocytes, 19-20 °C", "experimental": "Xenopus laevis specimen were purchased from Tefor Paris Saclay. Animal handling and experiments fully conformed to French regulations and were approved by local governmental veterinary services (authorization number E06-152-5 delivered by the Ministère de l’Agriculture, Direction des Services Vétérinaires). Animals were anesthetized by exposure for 20 min to a 0.1% solution of 3-aminobenzoic acid ethyl ester (MS-222) (Sigma) buffered at pH 7.4. Oocytes were surgically removed and dissected away in a saline solution (ND96) containing (in mM) 96 NaCl, 2 KCl, 1.8 CaCl2, 2 MgCl2, and 5 HEPES at pH 7.4 with NaOH. Stage V and VI oocytes were treated for 3 h with collagenase (1 mg/ml, type Ia, Sigma) in the presence of trypsin inhibitor (Sigma) in ND96 to discard follicular cells. pSI-HERG plasmid solutions were injected in nucleus (100 ng/µl, 23 nl/oocyte) using a pressure microinjector. The oocytes were kept at 19 °C in the ND96 saline solution supplemented with penicillin (10 mg/L) and streptomycin (20 mg/L). Oocytes were studied within 2 days following injection of plasmid. In a 0.3-ml perfusion chamber, a single oocyte was impaled with two standard glass microelectrodes (1–2.5 MΩ resistance) filled with 3 M KCl and maintained under voltage- clamp using a Dagan TEV 200 amplifier. […]"}, "Cav1.3_42": {"test_system": "Cav1.3_42", "assay": "Whole cell recording of ICav1.3-42 in HEK-293T cells", "assay_type": "cell-based", "conditions": "for L-type Ca2+ current density: mean ± SEM, n=6", "experimental": "HEK-293T (RRID:CVCL_2737) were obtained from the European Collection of Authenticated Cell Cultures (ECACC 96121229). The identity of HEK-293T has been confirmed by STR profiling and the cells have been eradicated from mycoplasma at ECACC. We routinely tested the cells for the absence of the mycoplasma contamination. Cells were cultivated at 37 °C in DMEM supplemented with GlutaMax, 10% fetal bovine serum and 1% penicillin/streptomycin (Invitrogen, Fisher Scientific, France). Transfections were performed using jet-PEI (Ozyme, France) with a DNA mix containing either the plasmids that code for Cav1.2-GFP, β2a and α2δ (0.8 µg of each) or either the plasmids that code for Cav1.3 (with and without exon 42a), or Cav2.1, or either Cav2.2 combined with β2a and α2δ (0.8 µg of each supplemented with 0.025 µg of a plasmid coding for GFP). For Cav3.1 expression β2a and α2δ subunits were omitted. Plasmids coding for β2a, α2δ and Cav1.3 were created as described previously. Plasmid coding for Cav1.2-GFP was obtained from Dr. Catalucci[60]. After transfection cells were placed at 30 °C for 2–3 days and dissociated with Versene (Invitrogen, Fisher Scientific, France) and plated at a density of ~35 × 10^3 cells per 35 mm Petri dish for electrophysiological recordings, which were performed the following day.\nMacroscopic currents in HEK-293T cells were recorded at room temperature using an Axopatch 200B or Multiclamp 700B patchclamp amplifier (Molecular Devices, Sunnyvale CA). […] The extracellular solution contained (in mM): 135 NaCl, 20 TEACl, 5 BaCl2, 1 MgCl2, and 10 HEPES (pH adjusted to 7.25 with KOH, ~330 mOsm).\nas §1"}}, "note": "Entries after “also recorded” stand apart in the source; their conditions may differ. Positions of bridges follow the written chain, without caps; N, C: chain ends. No end group written: not given here."}
{"sequence": "RICYIHKASLPRATKTCVENTCYKMFIRTQREYISERGCGCPTAMWPYQTECCKGDRCNK (disulfide 3-22, 17-39, 41-52, 53-58 (inferred)) [Cas, calciseptine]", "values": [{"measurement": "episodes of arrhythmia", "setting": "[1]", "value": "did not observe episodes of arrhythmia"}, {"measurement": "left ventricular (LV) contraction amplitude", "setting": "[1]; perfused 7 min, 37 °C, before 51 ± 3 mmHg, mean ± SEM", "value": "9 ± 2", "unit": "mmHg"}, {"measurement": "contraction velocity (dP/dt max)", "setting": "[1]; before 1.7 ± 0.2, mean ± SEM", "value": "0.4 ± 0.1", "unit": "mmHg/ms"}, {"measurement": "baseline diastolic pressure", "setting": "[1]; before 8 ± 2 mmHg, mean ± SEM", "value": "8 ± 3", "unit": "mmHg"}, {"measurement": "relaxation time constant (Ƭ)", "setting": "[1]; before 10 ± 1 ms, not affected, mean ± SEM", "value": "13 ± 2", "unit": "ms"}, {"measurement": "time-to-peak interval (time to maximal pressure)", "setting": "[1]; before 54 ± 1 ms, not affected, mean ± SEM", "value": "50 ± 3", "unit": "ms"}, {"measurement": "averaged inter-beat (RR) interval", "setting": "[1]; before 273 ± 17 ms, p > 0.05, mean ± SEM", "value": "271 ± 17", "unit": "ms"}, {"measurement": "relaxation velocity (dP/dt min)", "setting": "[1]; before −1.2 ± 0.1, mean ± SEM", "value": "−0.1 ± 0.1", "unit": "mmHg/ms"}, {"measurement": "effect on hERG current", "setting": "[2]", "value": "did not record any difference; also recorded: had no effect"}, {"measurement": "reduction of Ca current, long form of Cav1.3 (Cav1.3L)", "setting": "Cav1.3_42; Cas 300 nM and 1 µM", "value": "did not observe any reduction"}, {"measurement": "effect on ICav1.3-42 (I-V relationship)", "setting": "Cav1.3_42; Cas 300 nM, all voltages tested, at peak p = 0.5696, n=6/N=3", "value": "no significant effect"}, {"measurement": "L-type Ca2+ current density", "setting": "Cav1.3_42; Cas 300 nM, 0 mV, Ctrl -15.10± 3.34", "value": "-14.76± 4.28", "unit": "pA/pF"}, {"measurement": "L-type Ca2+ current density", "setting": "Cav1.3_42; Cas 300 nM, +10 mV, Ctrl -12.01± 2.36", "value": "-11.09± 3.45", "unit": "pA/pF"}, {"measurement": "L-type Ca2+ current density", "setting": "Cav1.3_42; Cas 300 nM, +20 mV, Ctrl -6.20± 1.35", "value": "-6.12± 2.78", "unit": "pA/pF"}, {"measurement": "L-type Ca2+ current density", "setting": "Cav1.3_42; Cas 300 nM, +30 mV, Ctrl -3.03± 0.66", "value": "-2.96± 2.36", "unit": "pA/pF"}, {"measurement": "L-type Ca2+ current density", "setting": "Cav1.3_42; Cas 300 nM, -10 mV, Ctrl -15.68± 3.76", "value": "-15.81± 4.50", "unit": "pA/pF"}, {"measurement": "L-type Ca2+ current density", "setting": "Cav1.3_42; Cas 300 nM, -20 mV, Ctrl -12.28± 3.31", "value": "-12.95± 3.93", "unit": "pA/pF"}, {"measurement": "reduction of ICav1.3-42", "setting": "Cav1.3_42; all concentrations tested (up to 1 µM), holding −60 mV, step 0 mV, 300 nM n=6/N=3, 1 µM n=7/N=3", "value": "did not record a statistically significant reduction"}]}
